Measured values as given in patent US4898943A, “Tricyclic triazolopyrimidine derivatives” (Daiichi Seiyaku Co., Ltd., priority 1987, dated 1990).

Assays:
Acute toxicity test = settings: mouse, in vivo, po; p.o. in mice
PCA reaction = experiment: PCA test (48-hour passive cutaneous anaphylaxis), oral administration; type: in vivo; settings: Rattus norvegicus, 10 mg/kg orally, 30 minutes before antigen challenge, male Sprague-Dawley rats
Procedure: Each of Sprague-Dawley female rats weighing 170 to 250 g (CRJ-CD(SD), Charles River Japan Inc.) was intramuscularly administered with 5 mg/kg-body weight of egg albumin dissolved in saline, and then 1 ml of a suspension of Bordetella pertussis vaccine (2×10^10 organism) in saline was administered intraperitoneally to the rat. On day 10, 3,000 larvae animal of Nippostrongylus brasiliensis were subcutaneously administered to the rats. On day 24, blood was drawn from the rats to obtain an antiserum.
The antiserum was diluted with saline so as to provide a blue spot having a diameter of about 10 mm in the following control group.
Male sprague-Dawley rats weighing about 180 g (5 rats per group) were sensitized by injecting 0.05 ml of the diluted antiserum into the shaved dorsal skin. Fourty-eight hours later, 1 ml of saline containing 0.5% Evans blue and 5 mg of egg albumin was administered to each of the rats via a tail vein. After 30 minutes, the rats were sacrificed by decapitation. The dorsal skin was removed, and the amount of the dye in the blue spot area was measured in accordance with the method of Katayama et al., Microbiol. Immunol., Vol. 22, 89-101 (1978).
Ten milligrams of the test compound was suspended in 5 ml of a 0.5% CMC aqueous solution, and the suspension was orally administered to each of the rats in an amount of 10 mg/kg 30 minutes before the antigen challenge. On the other hand, a control group received only a 0.5% CMC solution.
The inhibitory activity on the PCA reaction in the treated group was calculated by the following equation: [formula] wherein V represents a mean value of the dye amount in the blue spot area in the control group; and W represents a mean value of the dye amount in the blue spot area in the treated group.

With `O=c1c2[nH]nnc2nc2sc(CCC3CCCCC3)nn12` [Example 1, 6-(2-Cyclohexylethyl)-[1,3,4]thiadiazolo-[3,2-a][1,2,3]triazolo[4,5-d]pyrimidin-9-(1H)-one] the LD50 (Acute toxicity test) was > 4000 mg/kg and the inhibition at 10 mg/kg (PCA reaction) was 81%.
For `O=c1c2[nH]nnc2nc2sc(CCCC3CCCCC3)nn12` [Example 5], the LD50 (Acute toxicity test) was > 4000 mg/kg.
For `O=c1c2[nH]nnc2nc2sc(CCC3CCCCCC3)nn12` [Example 9], the LD50 (Acute toxicity test) was > 4000 mg/kg and the inhibition at 10 mg/kg (PCA reaction) was 88%.
In the case of `O=c1c2[nH]nnc2nc2sc(CCC3CCCC3)nn12` [Example 2], the LD50 (Acute toxicity test) is reported as 2000 to 4000 mg/kg and the inhibition at 10 mg/kg (PCA reaction) is reported as 62%.
`O=c1c2[nH]nnc2nc2sc(CC3CCCCC3)nn12` [Example 4] showed an inhibition at 10 mg/kg (PCA reaction) of 77%.
In the case of `O=c1c2[nH]nnc2nc2sc(CCCC3CCCC3)nn12` [Example 3], the LD50 (Acute toxicity test) is reported as > 4000 mg/kg and the inhibition at 10 mg/kg (PCA reaction) is reported as 91%.
